The text below walks through data of PMC12124858, “Thymoquinone loaded on chitosan nanoparticles alleviated the consequences of cryptosporidiosis infection in a murine model: Evidence from parasitological, histopathological, immunohistochemical, and immunological studies” (PLOS One, 2025).

Series [1] concerns L. donovani. Also on record: method as in Islamuddin et al. [22]. Particulars: in words; ref Islamuddin et al. [22]; cited from earlier work.
The nature of series [2]: In vitro release study, dialysis method. The class given is physicochemical. Particulars: PBS pH 6.8, 37°C. As for the experimental part:
The THQ release profile from […] […] Briefly, 3 mL of the […] suspension was placed in a dialysis bag (M.W. 12 kDa, Sigma-Aldrich). Each sealed dialysis bag was immersed in 50 mL of PBS (pH 6.8) in a shaking incubator at 37 ± 0.5°C and 100 rpm. Samples were withdrawn from the release medium at specified intervals and replaced with fresh buffer to maintain sink conditions. […] As a control, the release of free THQ and free NTZ was measured under the same conditions. All measurements were performed in triplicate.

The subject of series [3] is Cryptosporidium parvum. Nature of the series: Histopathological examination and scores of the intestine (H&E). The class given is in vivo, Swiss albino mice. Particulars: 21 dpi; for Intestinal histopathological findings: H&E, in words. The procedure:
At 21 dpi, the mice were humanely euthanized under light anesthesia induced by isoflurane inhalation (Forane®, Baxter, UK). Representative tissue specimens from all animals’ intestines, livers, and spleens were carefully collected and fixed in a 10% neutral buffered formalin solution for 48 hours. Following fixation, the tissues were dehydrated through a graded series of ethyl alcohol concentrations, cleared in xylene, and subsequently embedded in paraffin wax. Two sections, each 5 µm thick, were obtained from each tissue specimen. The sections were then deparaffinized in xylene and rehydrated through a descending series of alcohol concentrations. After rehydration, the tissue sections were mounted onto histological slides and stained with hematoxylin and eosin (H&E) for microscopic examination. The prepared slides were thoroughly analyzed under a light microscope to identify pathological alterations and evaluate the administered drug’s potential ameliorative effects. This standardized protocol ensured accurate and consistent histological assessment across all samples [39]. Histopathological scores for intestine: H&E-stained tissue sections of the intestine were evaluated in a blinded manner by assessing specific histological parameters, including mononuclear cell infiltration in the lamina propria, crypt hyperplasia, depletion or hyperplasia of goblet cells, and alterations in mucosal histoarchitecture. A systematic scoring approach was employed to quantify these histological changes. Histological alterations were counted in 50 randomly selected microscopic fields (captured images; 40 × objective) from each mouse within each experimental group. This method ensured a comprehensive and unbiased assessment of intestinal pathology across all samples [40].

As for `CC1=CC(=O)C(C(C)C)=CC1=O` [THQ, 2-isopropyl-5-methyl-1,4-benzoquinone], in series [1], the leishmanicidal activity result was “significant leishmanicidal activity”. The molecule further had a drug release in series [2] (after 12 hours) of 100%. The Intestinal histopathological findings entry in series [3] was “greater improvement than the NTZ-treated group”. In series [3] (intestine), the “Morphometric indices: Villus width” value is on record as 91.4^A. Further, in series [3] (intestine, mean ± SE), the “Lesion frequency: Epithelial necrosis” value is listed as 7.5 ± 0.43^B, the “Lesion frequency: Goblet cell hyperplasia” value is 20.67 ± 0.49^BC, the “Lesion frequency: Mucosal erosion” value is on record as 14.83 ± 0.65^B and the “Lesion frequency: Mucosal ulceration” value was 8.83 ± 0.48^B. Further, in series [3] (intestine, mean ± SE), the “Lesion frequency: Mucosal-associated lymphocyte hyperplasia” value is given as 22 ± 0.68^C, the “Lesion frequency: Vascular congestion” value was 18.5 ± 0.85^B, the “Lesion frequency: Villus atrophy” value is 9.83 ± 0.87^B and the “Lesion frequency: Villus fusion” value was 4.83 ± 0.17^B. Moreover, in series [3] (intestine, mean ± SE), the “Morphometric indices: Crypt depth” value is given as 79.7 ± 0.22^AB, the “Morphometric indices: Thickness of lamina propria” value is listed as 170.33 ± 1.15^BC, the “Morphometric indices: Thickness of muscular layer per image” value was 64.35 ± 0.2^C and the “Morphometric indices: Villus height” value is 302 ± 2.35^C. In series [3] (intestine, mean ± SE), the “Morphometric indices: Villus surface area” value is reported as 27975.53 ± 357.01^C.

The molecule `CC(=O)Oc1ccccc1C(=O)Nc1ncc([N+](=O)[O-])s1` [NTZ, nitazoxanide, reference compound] showed a drug release in series [2] (first eight hours) of 100%. The Intestinal histopathological findings entry in series [3] was “persistent villous atrophy and mild improvement in histopathological alterations”. Besides, the “Morphometric indices: Villus width” value in series [3] (intestine) is on record as 91.2^A. Also, in series [3] (intestine, mean ± SE), the “Lesion frequency: Epithelial necrosis” value is 9 ± 0.58^B, the “Lesion frequency: Goblet cell hyperplasia” value is on record as 21.5 ± 0.76^B, the “Lesion frequency: Mucosal erosion” value is 16 ± 0.58^B and the “Lesion frequency: Mucosal ulceration” value is 9.83 ± 0.6^B. Besides, in series [3] (intestine, mean ± SE), the “Lesion frequency: Mucosal-associated lymphocyte hyperplasia” value is given as 21 ± 0.58^C, the “Lesion frequency: Vascular congestion” value is listed as 21 ± 0.97^B, the “Lesion frequency: Villus atrophy” value is recorded as 10 ± 0.58^B and the “Lesion frequency: Villus fusion” value is listed as 5.17 ± 0.31^B. In series [3] (intestine, mean ± SE), the “Morphometric indices: Thickness of lamina propria” value was 174.33 ± 1.05^B, the “Morphometric indices: Thickness of muscular layer per image” value was 65.87 ± 0.59^BC, the “Morphometric indices: Villus height” value is reported as 298.67 ± 2.4^C and the “Morphometric indices: Villus surface area” value is reported as 27609.37 ± 307.03^C.
